Test [1] addresses T1, Receptor tyrosine-protein kinase erbB-2 (Homo sapiens, UniProt P04626). Briefly: Inhibition of HER2 autophosphorylation at Y1248 in human MCF7 cells expressing pcDNA3 at 10 uM after 2 hrs by Western blotting. Type of test: cell-based. For orientation: In western blotting, separated proteins are transferred to a membrane and probed.
For test [2], the system named is MCF7. Description: Inhibition of HER2 delta16 mutant autophosphorylation at Y1248 in human MCF7 cells at 10 uM after 2 hrs by Western blotting. Type of test: cell-based.
The target of test [3] is T1, Receptor tyrosine-protein kinase erbB-2. Briefly: Inhibition of HER2 autophosphorylation at Y1248 in human MCF7 cells at 10 uM after 2 hrs by Western blotting. Type of test: cell-based.
Test [4] relates to MCF7. Description: Cytotoxicity against human MCF7 cells expressing pcDNA3 assessed as reduction of cell viability at 10 uM after 48 hrs CellTiter-Glo assay. Type of test: functional.
Test [5] deals with MCF7. Briefly: Cytotoxicity against human MCF7 cells expressing HER2 assessed as reduction of cell viability after 48 hrs CellTiter-Glo assay. The note with it: MCF7, 48 h. It is filed as functional, cell-based. A general note: ATP-based viability assays read luminescence as a measure of living cells.
Test [6] deals with MCF7. Description: Cytotoxicity against human MCF7 cells expressing pcDNA3 assessed as reduction of cell viability after 48 hrs CellTiter-Glo assay. Type of test: functional, cell-based. Conditions: MCF7, 48 h.
The subject of test [7] is MCF7. Briefly: Cytotoxicity against human MCF7 cells expressing HER2delta16 assessed as reduction of cell viability after 48 hrs CellTiter-Glo assay. It is filed as functional, cell-based. Conditions: MCF7, 48 h.
Test [8] has as its system MCF7. Briefly: Cytotoxicity against human MCF7 cells expressing HER2delta16 assessed as reduction of cell viability at 10 uM after 48 hrs CellTiter-Glo assay. It is filed as functional.
Test [9] has as its system MCF7. Description: Cytotoxicity against human MCF7 cells expressing HER2 assessed as reduction of cell viability at 10 uM after 48 hrs CellTiter-Glo assay. It is filed as functional.
For test [10], the target named is T1, Receptor tyrosine-protein kinase erbB-2. Description: Inhibition of HER2 (unknown origin) by ADP-Glo assay.

Each structure is given as a SMILES string. Calls of active or inactive are those of the source. The rule behind the calls is not given here.

T1 sequence (P04626 whole entry): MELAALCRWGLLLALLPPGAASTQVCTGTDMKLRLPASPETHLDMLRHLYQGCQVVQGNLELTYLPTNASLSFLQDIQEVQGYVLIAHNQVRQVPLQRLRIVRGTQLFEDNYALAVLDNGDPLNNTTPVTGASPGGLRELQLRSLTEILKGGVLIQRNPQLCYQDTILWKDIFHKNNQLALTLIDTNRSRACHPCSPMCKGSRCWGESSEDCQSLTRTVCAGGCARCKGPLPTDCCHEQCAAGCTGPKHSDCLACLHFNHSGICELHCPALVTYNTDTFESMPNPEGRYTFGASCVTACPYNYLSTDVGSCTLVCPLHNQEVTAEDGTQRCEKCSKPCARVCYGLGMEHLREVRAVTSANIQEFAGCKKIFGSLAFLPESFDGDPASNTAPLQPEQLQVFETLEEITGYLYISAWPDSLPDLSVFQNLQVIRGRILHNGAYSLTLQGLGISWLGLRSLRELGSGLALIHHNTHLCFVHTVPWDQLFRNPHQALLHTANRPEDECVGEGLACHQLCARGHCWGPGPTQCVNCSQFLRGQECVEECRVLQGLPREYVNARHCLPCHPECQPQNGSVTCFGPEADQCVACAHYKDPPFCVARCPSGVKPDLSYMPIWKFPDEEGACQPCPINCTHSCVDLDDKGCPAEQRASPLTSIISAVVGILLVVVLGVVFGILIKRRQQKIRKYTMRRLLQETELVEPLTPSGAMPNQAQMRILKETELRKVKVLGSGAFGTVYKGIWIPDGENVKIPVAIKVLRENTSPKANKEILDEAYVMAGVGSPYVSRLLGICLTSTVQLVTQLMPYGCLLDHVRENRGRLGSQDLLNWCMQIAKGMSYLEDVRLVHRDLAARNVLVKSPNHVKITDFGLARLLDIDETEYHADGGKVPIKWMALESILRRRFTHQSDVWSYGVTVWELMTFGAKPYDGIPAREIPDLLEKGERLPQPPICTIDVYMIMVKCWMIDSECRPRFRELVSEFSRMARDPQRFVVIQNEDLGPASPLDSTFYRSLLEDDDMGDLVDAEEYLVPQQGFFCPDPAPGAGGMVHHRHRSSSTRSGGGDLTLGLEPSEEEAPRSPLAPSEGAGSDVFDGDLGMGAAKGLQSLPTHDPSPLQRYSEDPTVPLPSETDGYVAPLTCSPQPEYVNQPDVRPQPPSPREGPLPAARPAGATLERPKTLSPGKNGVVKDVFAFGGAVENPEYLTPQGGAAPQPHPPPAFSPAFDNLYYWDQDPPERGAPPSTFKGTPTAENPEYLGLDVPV

As for `CC(=O)Oc1ccc(O)c2c1C(=O)C=CC2=O`, the inhibition entry (in test [1]; with MCF7 [2]; in test [3]) was “inactive” throughout.

For orientation: IC50 means the concentration at which inhibition is half-maximal. On to `O=C1C(CO)=C(CO)C(=O)c2c(O)ccc(O)c21`, for which the inhibition result (in [1]; in the test with MCF7 [2]; in [3]) was “Active” throughout. Also, the Activity in the test on MCF7 [4], with MCF7 [8] and in the test on MCF7 [9] was >90% in each case. Further, the IC50 with MCF7 [5] came to 0.82 µM; in the test on MCF7 [6], 0.5 µM; in the test on MCF7 [7], 0.93 µM; in [10], 11.4 µM.

As for `CS(=O)(=O)CCNCc1ccc(-c2ccc3ncnc(Nc4ccc(OCc5cccc(F)c5)c(Cl)c4)c3c2)o1` [LAPATINIB], the inhibition result (in [1]; in the test on MCF7 [2]; in [3]) was “Active” throughout. The Activity in the test with MCF7 [4], in the test on MCF7 [8] and in the test with MCF7 [9] was <50% throughout. In addition, the results for the half-inhibitory concentration (IC50) in the test with MCF7 [5], in the test with MCF7 [6] and in the test on MCF7 [7] were 15.8 µM, 15.7 µM and 19.2 µM, respectively.

Take `O=C1C2=C(C(=O)c3c(O)ccc(O)c31)[C@@H](O)[C@@H](O)[C@@H](O)C2`: the inhibition entry (in test [1]; in the test with MCF7 [2]; in [3]) was “Active” each time. Besides, the Activity with MCF7 [4], in the test with MCF7 [8] and in the test with MCF7 [9] was >90% each time. Also, the half-inhibitory concentration (IC50) with MCF7 [5] worked out at 0.87 µM; in the test with MCF7 [6] it was 0.47 µM; in the test on MCF7 [7] it was 0.91 µM; in test [10] it was 10.8 µM.

With `CC1=CC(=O)c2c(O)cccc2C1=O` [PLUMBAGIN], the inhibition result (in [1]; in the test on MCF7 [2]; in test [3]) was “Active” throughout. Further, the Activity in the test on MCF7 [4], in the test with MCF7 [8] and in the test with MCF7 [9] was >90% throughout. The IC50 in the test on MCF7 [5] is 2.84 µM; in the test on MCF7 [6], 3.35 µM; in the test with MCF7 [7], 5.1 µM; in [10] it was 30.8 µM.

Source of the values: ChEMBL document CHEMBL3098113, “Identification of quinones as HER2 inhibitors for the treatment of trastuzumab resistant breast cancer” (Bioorg Med Chem Lett, 2014).
